Source: patent publication US8222229B2, “Peritoneal dialysis method” (Kowa Co., Ltd., priority 2002, dated 2012)

Tested on: HPMC (human peritoneal mesothelial cells)
Assay: HPMC viability under high level glucose, cell counting (WST-1)
Format: cell-based
Settings: for effect on decrease in the viability of HPMC attributed to glucose (as measured by absorbance): preincubation 3 h with 0, 10, 100, 1,000 μM test substance, then 8 h in glucose 5.8 mM, 75 mM, 140 mM, WST-1
Description: Peritoneal mesothelial cells (HPMC) were preincubated for three hours in culture media (M199) containing ATP (0, 10, 100, and 1,000 μM). The cells were washed with an HPMC culture medium (saline buffer) and then incubated for eight hours in culture media (M199) containing glucose at three different levels (5.8 mM, 75 mM, and 140 mM). HPMC viability was obtained through cell counting (WST-1).
Instead of ATP, adenosine, which is a metabolite of ATP, was employed to study the effect of adenosine on decrease in HPMC viability caused by high level glucose.
Prior to the step of preincubation with ATP-containing culture media in the procedure of Example 1, HPMC were preincubated for 30 minutes with each of the following selective ATP receptor antagonists: (1) Suramin (P2X, P2Y receptor antagonist; 10 μM), (2) Reactive Blue 2 (P2Y receptor antagonist; 30 μM), and (3) PPADS (P2X receptor antagonist; 10 μM). Thereafter, the test was performed as described in Example 1.

Structure (SMILES)	effect on decrease in the viability of HPMC attributed to glucose (as measured by absorbance)	ATP's effect on decrease in the viability of HPMC attributed to glucose after ATP receptor antagonist pretreatment (HPMC preincubated 30 min with Suramin 10 μM, Reactive Blue 2 30 μM or PPADS 10 μM before ATP preincubation, glucose 5.8, 75, 140 mM)
Nc1ncnc2c1ncn2[C@@H]1O[C@H](CO)[C@@H](O)[C@H]1O [Adenosine, adenosine, reference compound]	no effect of alleviating decrease in HPMC viability	–
Nc1ncnc2c1ncn2[C@@H]1O[C@H](COP(=O)(O)OP(=O)(O)OP(=O)(O)O)[C@@H](O)[C@H]1O [ATP, adenosine triphosphate]	decrease in viability caused by high level glucose was significantly alleviated	no effect of alleviating reduction in HPMC viability
